Experiments:
Format in all cases: biochemical
Recombinant human TRKB = Recombinant human TRKB (Homo sapiens (Human), UniProt Q16620); experiment: In vitro activity test on TRKB kinase (HTRF kinEASE TK); conditions: 4.77 μM ATP, 50 min, room temperature
Procedure: (§1) Recombinant human TRKA, TRKB, TRKC proteins were purchased from Carna Biosciences. HTRF kinEASE TK kit was purchased from Cisbio Bioassays. Synergy Neo 2 of Biotek was used to read the plate.
(§2) The tested compounds were subjected to 3-fold serial dilution to reach a final concentration of 1 μM to 0.05 nM (10 concentrations), duplicates for each concentration; and the DMSO concentration in the detection reaction was 1%.
(§3) 0.037 ng/μL TRKB protein kinase, 1 μM TK Substrate-biotin polypeptide substrate, 4.77 μM ATP, 1× enzymatic buffer, 5 mM MgCl2, 1 mM MnCl2 and 1 mM DTT. The assay plate was White Proxiplate 384-Plus plate (PerkinElmer), the reaction was incubated at room temperature for 50 min, and the assay volume was 10 μL.
(§4) 10 μL of detection reagent (containing 0.125 μM SA-XL665 and 5 μL 1×TK-Antibody) was added to the plate and incubated overnight at room temperature. Synergy Neo 2 was used to read the plate.
(§5) The 665/620 Ratio was converted according to the following formula into inhibition rate (%)=(1−Ratiotest/Ratiomax)×100%. Ratiomax was the value of positive controls without tested compound, and Ratiotest was the value of each concentration of different compounds. IC50 (nM) data was obtained by 4 parameter curve fitting (see Table 1).

Recombinant human TRKC = Recombinant human TRKC (Homo sapiens (Human), UniProt Q16288); experiment: In vitro activity test on TRKC kinase (HTRF kinEASE TK); conditions: 25.64 μM ATP, 40 min, room temperature
Recombinant human TRKC, sequence (Q16288 32-839): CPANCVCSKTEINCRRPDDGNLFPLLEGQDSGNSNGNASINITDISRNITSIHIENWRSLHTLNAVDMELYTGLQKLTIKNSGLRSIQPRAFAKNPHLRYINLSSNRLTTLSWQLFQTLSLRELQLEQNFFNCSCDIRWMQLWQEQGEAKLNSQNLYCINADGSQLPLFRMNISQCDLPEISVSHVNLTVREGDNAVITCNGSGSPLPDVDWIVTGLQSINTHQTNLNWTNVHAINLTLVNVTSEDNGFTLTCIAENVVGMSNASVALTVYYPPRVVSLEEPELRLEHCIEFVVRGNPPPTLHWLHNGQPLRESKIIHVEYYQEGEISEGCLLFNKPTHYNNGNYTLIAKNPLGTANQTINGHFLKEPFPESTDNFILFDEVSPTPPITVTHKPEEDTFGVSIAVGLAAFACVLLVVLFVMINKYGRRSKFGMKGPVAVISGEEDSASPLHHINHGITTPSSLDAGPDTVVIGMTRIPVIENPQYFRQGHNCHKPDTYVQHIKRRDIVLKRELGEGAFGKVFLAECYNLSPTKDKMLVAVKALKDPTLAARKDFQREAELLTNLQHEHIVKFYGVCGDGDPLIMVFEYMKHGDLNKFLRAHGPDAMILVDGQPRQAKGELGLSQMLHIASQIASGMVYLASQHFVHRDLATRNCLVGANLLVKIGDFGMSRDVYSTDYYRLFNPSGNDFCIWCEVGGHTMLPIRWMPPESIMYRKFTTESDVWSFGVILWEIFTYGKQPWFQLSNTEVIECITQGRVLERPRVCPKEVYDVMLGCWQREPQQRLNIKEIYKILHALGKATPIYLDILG
Procedure: as §1, §2
as §3, with “ng/μL TRKC” for “ng/μL TRKB”, “substrate, 25.64” for “substrate, 4.77”, “MgCl2,” for “MgCl2, 1 mM MnCl2”, “The detection” for “The assay”, “for 40” for “for 50”
as §4, §5

Recombinant human TRKA = Recombinant human TRKA (Homo sapiens (Human), UniProt P04629); experiment: In vitro activity test on TRKA kinase (HTRF kinEASE TK); conditions: 14.68 μM ATP, 40 min, room temperature
Recombinant human TRKA, sequence (P04629 33-796): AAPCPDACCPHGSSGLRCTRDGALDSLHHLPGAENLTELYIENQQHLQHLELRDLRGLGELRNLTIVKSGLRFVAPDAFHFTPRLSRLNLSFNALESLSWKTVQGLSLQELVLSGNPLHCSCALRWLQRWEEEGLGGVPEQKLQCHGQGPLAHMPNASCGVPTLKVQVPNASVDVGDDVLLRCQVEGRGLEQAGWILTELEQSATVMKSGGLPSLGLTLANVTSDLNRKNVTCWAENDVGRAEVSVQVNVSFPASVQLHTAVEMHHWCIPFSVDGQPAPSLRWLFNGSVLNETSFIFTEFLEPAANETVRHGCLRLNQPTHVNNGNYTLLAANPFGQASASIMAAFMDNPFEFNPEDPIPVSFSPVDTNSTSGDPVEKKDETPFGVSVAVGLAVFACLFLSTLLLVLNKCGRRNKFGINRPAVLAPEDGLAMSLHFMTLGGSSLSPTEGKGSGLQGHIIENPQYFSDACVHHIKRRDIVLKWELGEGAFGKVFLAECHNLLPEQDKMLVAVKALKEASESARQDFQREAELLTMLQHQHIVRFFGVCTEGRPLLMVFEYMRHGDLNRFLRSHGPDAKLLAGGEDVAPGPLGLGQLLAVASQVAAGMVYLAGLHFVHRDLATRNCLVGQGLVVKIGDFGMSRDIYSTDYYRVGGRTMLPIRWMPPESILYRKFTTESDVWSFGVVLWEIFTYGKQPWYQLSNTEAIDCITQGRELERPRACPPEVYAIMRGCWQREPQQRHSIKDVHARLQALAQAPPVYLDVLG
Procedure: as §1, §2
0.2 ng/μL TRKA protein kinase, 1 μM TK Substrate-biotin polypeptide substrate, 14.68 μM ATP, 1×enzymatic buffer, 5 mM MgCl2, and 1 mM DTT. The assay plate was White Proxiplate384-Plus plate (PerkinElmer), and the reaction was incubated at room temperature for 40 min, and the assay volume was 10 μL.
as §4, §5

Recombinant human TRKB, sequence (Q16620 32-822): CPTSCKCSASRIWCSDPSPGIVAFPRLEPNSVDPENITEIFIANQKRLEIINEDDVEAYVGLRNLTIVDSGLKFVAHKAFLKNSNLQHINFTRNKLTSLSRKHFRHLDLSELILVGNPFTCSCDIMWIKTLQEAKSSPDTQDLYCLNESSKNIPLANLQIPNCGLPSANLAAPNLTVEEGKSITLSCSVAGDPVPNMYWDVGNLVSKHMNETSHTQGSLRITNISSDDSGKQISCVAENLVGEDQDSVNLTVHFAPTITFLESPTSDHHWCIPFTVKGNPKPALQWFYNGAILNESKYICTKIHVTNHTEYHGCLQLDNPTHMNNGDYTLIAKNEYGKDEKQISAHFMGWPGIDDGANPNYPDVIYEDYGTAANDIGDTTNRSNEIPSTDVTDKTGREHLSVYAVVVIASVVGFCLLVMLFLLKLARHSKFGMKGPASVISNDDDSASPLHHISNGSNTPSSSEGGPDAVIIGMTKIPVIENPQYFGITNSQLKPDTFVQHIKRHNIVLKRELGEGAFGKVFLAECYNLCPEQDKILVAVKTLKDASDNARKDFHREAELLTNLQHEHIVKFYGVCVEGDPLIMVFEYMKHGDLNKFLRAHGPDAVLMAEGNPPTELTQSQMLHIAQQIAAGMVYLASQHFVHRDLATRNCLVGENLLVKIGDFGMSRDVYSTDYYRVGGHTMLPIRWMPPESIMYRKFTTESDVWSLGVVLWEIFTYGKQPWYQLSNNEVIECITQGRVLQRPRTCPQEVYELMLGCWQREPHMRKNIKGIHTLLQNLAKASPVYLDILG

SMILES	IC50 (Recombinant human TRKB)	IC50 (Recombinant human TRKC)	IC50 (Recombinant human TRKA)
CNC(=O)CC1(O)CCN(C(=O)Nc2cnc3[nH]nc(N4CCC[C@@H]4c4cc(F)ccc4F)c3c2)C1 (stereo partly drawn) [Example 1, N-(3-((R)-2-(2,5-difluorophenyl)pyrrolidin-1-yl)-1H-pyrazolo[3,4-b]pyridin-5-yl)-3-hydroxy-3-(2-(methylamino)-2-oxoethyl)pyrrolidine-1-carboxamide]	< 500 nM	< 500 nM	< 500 nM
O=C(Nc1cnc2[nH]nc(N3CCC[C@@H]3c3cc(F)ccc3F)c2c1)N1CC[C@H](O)C1 [Example 2, (S)—N-(3-((R)-2-(2,5-difluorophenyl)pyrrolidin-1-yl)-1H-pyrazolo[3,4-b]pyridin-5-yl)-3-hydroxypyrrolidine-1-carboxamide]	< 500 nM	< 500 nM	< 500 nM
O=C(Nc1cnc2[nH]nc(N3CCC[C@@H]3c3cc(F)ccc3F)c2c1)c1ccc(N2CC[C@H](O)C2)nc1 [Example 3, N-(3-((R)-2-(2,5-difluorophenyl)pyrrolidin-1-yl)-1H-pyrazolo[3,4-b]pyridin-5-yl)-6-((S)-3-hydroxypyrrolidin-1-yl)nicotinamide]	< 100 nM	< 50 nM	< 50 nM
NC(=O)c1cnc2[nH]nc(N3CCC[C@@H]3c3cc(F)ccc3F)c2c1 [Example 4, (R)-3-(2-(2,5-difluorophenyl)pyrrolidin-1-yl)-1H-pyrazolo[3,4-b]pyridine-5-carboxamide]	< 10 nM	< 10 nM	< 10 nM
O=C(NCCO)c1cnc2[nH]nc(N3CCC[C@@H]3c3cc(F)ccc3F)c2c1 [Example 6, (R)-3-(2-(2,5-difluorophenyl)pyrrolidin-1-yl)-N-(2-hydroxyethyl)-1H-pyrazolo[3,4-b]pyridine-5-carboxamide]	< 50 nM	< 50 nM	< 50 nM
COCCNC(=O)c1cnc2[nH]nc(N3CCC[C@@H]3c3cc(F)ccc3F)c2c1 [Example 8, (R)-3-(2-(2,5-difluorophenyl)pyrrolidin-1-yl)-N-(2-methoxyethyl)-1H-pyrazolo[3,4-b]pyridine-5-carboxamide]	< 10 nM	< 10 nM	< 50 nM
O=C(NCCCO)c1cnc2[nH]nc(N3CCC[C@@H]3c3cc(F)ccc3F)c2c1 [Example 9, (R)-3-(2-(2,5-difluorophenyl)pyrrolidin-1-yl)-N-(3-hydroxypropyl)-1H-pyrazolo[3,4-b]pyridine-5-carboxamide]	< 10 nM	< 50 nM	< 50 nM

More lines, now with the values ahead:

IC50 (Recombinant human TRKB)	IC50 (Recombinant human TRKC)	IC50 (Recombinant human TRKA)	SMILES
< 10 nM	< 10 nM	< 50 nM	CC(C)(O)CNC(=O)c1cnc2[nH]nc(N3CCC[C@@H]3c3cc(F)ccc3F)c2c1 [Example 10, (R)-3-(2-(2,5-difluorophenyl)pyrrolidin-1-yl)-N-(2-hydroxy-2-methylpropyl)-1H-pyrazolo[3,4-b]pyridine-5-carboxamide]
< 50 nM	< 10 nM	< 10 nM	O=C(NCCCCO)c1cnc2[nH]nc(N3CCC[C@@H]3c3cc(F)ccc3F)c2c1 [Example 12, (R)-3-(2-(2,5-difluorophenyl)pyrrolidin-1-yl)-N-(4-hydroxybutyl)-1H-pyrazolo[3,4-b]pyridine-5-carboxamide]
< 10 nM	< 10 nM	< 10 nM	O=C(N[C@H]1CC[C@@H](O)CC1)c1cnc2[nH]nc(N3CCC[C@@H]3c3cc(F)ccc3F)c2c1 [Example 14, 3-((R)-2-(2,5-difluorophenyl)pyrrolidin-1-yl)-N-((1s,4S)-4-hydroxycyclohexyl)-1H-pyrazolo[3,4-b]pyridine-5-carboxamide]
< 10 nM	< 10 nM	< 1 nM	CC1(O)CCN(c2cnc(C(=O)Nc3cnc4[nH]nc(N5C[C@@H](F)C[C@@H]5c5cc(F)ccc5F)c4c3)cn2)C1 (stereo partly drawn) [Example 16, N-(3-((2R,4S)-2-(2,5-difluorophenyl)-4-fluoropyrrolidin-1-yl)-1H-pyrazolo[3,4-b]pyridin-5-yl)-5-(3-hydroxy-3-methylpyrrolidin-1-yl)pyrazine-2-carboxamide]

From patent US12391687B2, “Five-and-six-membered heterocyclic compound and use thereof as protein receptor kinase inhibitor” (SHANGHAI ENNOVABIO PHARMACEUTICALS CO., LTD., priority 2018, dated 2025)
